The values below come from ChEMBL document CHEMBL1137502, “Design and evaluation of analogues of the bacterial cell-wall peptidoglycan motif L-Lys-D-Ala-D-Ala for use in a vancomycin biosensor” (2007).

For the experiment, the system named is Staphylococcus aureus. Briefly: Antibacterial activity against Staphylococcus aureus ATCC 25923 assessed as reduction of bacterial count by broth microdilution method. The experiment is classed as functional. In general terms: Dilution methods test growth across graded concentrations, often in twofold steps.

The structures appear in SMILES notation.

For the compound `CN[C@H](CC(C)C)C(=O)N[C@H]1C(=O)N[C@@H](CC(N)=O)C(=O)N[C@H]2C(=O)N[C@H]3C(=O)N[C@H](C(=O)N[C@H](C(=O)O)c4cc(O)cc(O)c4-c4cc3ccc4O)[C@H](O)c3ccc(c(Cl)c3)Oc3cc2cc(c3O[C@@H]2O[C@H](CO)[C@@H](O)[C@H](O)[C@H]2O[C@H]2C[C@](C)(N)[C@H](O)[C@H](C)O2)Oc2ccc(cc2Cl)[C@H]1O` [VANCOMYCIN], the Log10 cfu was determined as 1.
